Test results reported in ChEMBL document CHEMBL4417621, “Methods to identify tas2r modulators” (2013).
Activity calls are given as the source filed them. The calls are words filed in the database; no cut-off is given here.

Key:
[1] = target: T1, Taste receptor type 2 member 16 (Homo sapiens, UniProt Q9NYV7); experiment: Activation of full-length human TAS2R16 expressed in HEK293T/Galpha16-gustducin 44 cells assessed as stimulation of calcium flux by measuring deltaF/F0 ratio by Fluo-4 dye based FLIPR assay; assay type: functional, cell-based
T1 sequence (Q9NYV7 whole entry): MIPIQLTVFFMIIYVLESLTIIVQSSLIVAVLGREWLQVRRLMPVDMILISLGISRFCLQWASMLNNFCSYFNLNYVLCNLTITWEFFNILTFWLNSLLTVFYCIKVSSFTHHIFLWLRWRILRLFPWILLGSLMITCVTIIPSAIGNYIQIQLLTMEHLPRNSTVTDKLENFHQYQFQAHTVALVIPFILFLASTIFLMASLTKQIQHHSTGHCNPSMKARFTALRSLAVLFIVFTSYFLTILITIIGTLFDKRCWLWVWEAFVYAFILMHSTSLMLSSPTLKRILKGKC

[2] = target: T2, Taste receptor type 2 member 16 (Homo sapiens) (UniProt Q9NYV7); experiment: Activation of full-length human TAS2R16 expressed in HEK293T/Galpha16-gustducin 44 cells assessed as effect on calcium flux by measuring deltaF/F0 ratio at 0.1563 mM by Fluo-4 dye based FLIPR assay; assay type: functional, cell-based
T2 sequence (whole entry): T1 sequence (Q9NYV7 whole entry)

[3] = target: T2, Taste receptor type 2 member 16 (Homo sapiens); experiment: Activation of full-length human TAS2R16 expressed in HEK293T/Galpha16-gustducin 44 cells assessed as effect on calcium flux by measuring deltaF/F0 ratio at 0.0391 mM by Fluo-4 dye based FLIPR assay; assay type: functional, cell-based
[4] = target: T2, Taste receptor type 2 member 16 (Homo sapiens); experiment: Activation of full-length human TAS2R16 expressed in HEK293T/Galpha16-gustducin 44 cells assessed as effect on calcium flux by measuring deltaF/F0 ratio at 0.625 mM by Fluo-4 dye based FLIPR assay; assay type: functional, cell-based
[5] = target: T2, Taste receptor type 2 member 16 (Homo sapiens); experiment: Activation of full-length human TAS2R16 expressed in HEK293T/Galpha16-gustducin 44 cells assessed as effect on calcium flux by measuring deltaF/F0 ratio at 10 mM by Fluo-4 dye based FLIPR assay; assay type: functional, cell-based
[6] = target: T2, Taste receptor type 2 member 16 (Homo sapiens); experiment: Activation of full-length human TAS2R16 expressed in HEK293T/Galpha16-gustducin 44 cells assessed as effect on calcium flux by measuring deltaF/F0 ratio at 0.0781 mM by Fluo-4 dye based FLIPR assay; assay type: functional, cell-based
[7] = target: T2, Taste receptor type 2 member 16 (Homo sapiens); experiment: Activation of full-length human TAS2R16 expressed in HEK293T/Galpha16-gustducin 44 cells assessed as effect on calcium flux by measuring deltaF/F0 ratio at 1.25 mM by Fluo-4 dye based FLIPR assay; assay type: functional, cell-based
[8] = target: T2, Taste receptor type 2 member 16 (Homo sapiens); experiment: Activation of full-length human TAS2R16 expressed in HEK293T/Galpha16-gustducin 44 cells assessed as effect on calcium flux by measuring deltaF/F0 ratio at 5 mM by Fluo-4 dye based FLIPR assay; assay type: functional, cell-based
[9] = target: T2, Taste receptor type 2 member 16 (Homo sapiens); experiment: Activation of full-length human TAS2R16 expressed in HEK293T/Galpha16-gustducin 44 cells assessed as effect on calcium flux by measuring deltaF/F0 ratio at 2.5 mM by Fluo-4 dye based FLIPR assay; assay type: functional, cell-based
[10] = target: T2, Taste receptor type 2 member 16 (Homo sapiens); experiment: Activation of full-length human TAS2R16 expressed in HEK293T/Galpha16-gustducin 44 cells assessed as effect on calcium flux by measuring deltaF/F0 ratio at 0.3125 mM by Fluo-4 dye based FLIPR assay; assay type: functional, cell-based
[11] = target: T3, Taste receptor type 2 member 31 (Homo sapiens) (UniProt P59538); experiment: Antagonist activity at full-length human TAS2R44 expressed in HEK293T/Galpha16-gustducin 44 cells assessed as effect on calcium flux by measuring deltaF/F0 ratio at 25 uM in presence of 25 mM sucralose by Fluo-4 dye based FLIPR assay (reference value: 0.110 +/- 0.019); assay type: functional, cell-based
T3 sequence (whole entry): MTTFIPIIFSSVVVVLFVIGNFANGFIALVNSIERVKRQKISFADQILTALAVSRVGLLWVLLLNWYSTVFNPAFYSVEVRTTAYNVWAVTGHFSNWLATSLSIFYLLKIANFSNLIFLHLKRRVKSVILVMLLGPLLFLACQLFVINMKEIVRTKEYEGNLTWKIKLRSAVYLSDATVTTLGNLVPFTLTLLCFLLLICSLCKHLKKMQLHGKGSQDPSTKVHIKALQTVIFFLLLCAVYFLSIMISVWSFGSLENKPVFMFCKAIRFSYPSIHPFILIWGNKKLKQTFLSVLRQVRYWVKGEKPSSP

[12] = target: T3, Taste receptor type 2 member 31 (Homo sapiens); experiment: Antagonist activity at full-length human TAS2R44 expressed in HEK293T/Galpha16-gustducin 44 cells assessed as effect on calcium flux by measuring deltaF/F0 ratio at 25 uM in presence of 100 mM sucralose by Fluo-4 dye based FLIPR assay (reference value: 0.352 +/- 0.030); assay type: functional, cell-based
[13] = target: T2, Taste receptor type 2 member 16 (Homo sapiens); experiment: Antagonist activity at full-length human TAS2R16 expressed in HEK293T/Galpha16-gustducin 44 cells assessed as effect on calcium flux by measuring deltaF/F0 ratio at 25 uM in presence of 1.25 mM phenyl-beta-glucopyranoside by Fluo-4 dye based FLIPR assay; assay type: functional, cell-based
[14] = species: Homo sapiens; experiment: Inhibition of 3 mM sucralose-induced bitter sensitivity in bitter sensitive human panelists tasting solution containing 3 mM sucralose with 13 ppm test compound; assay type: functional, organism-based
[15] = target: T3, Taste receptor type 2 member 31 (Homo sapiens); experiment: Antagonist activity at full-length human TAS2R44 expressed in HEK293T/Galpha16-gustducin 44 cells assessed as effect on calcium flux by measuring deltaF/F0 ratio at 25 uM in presence of 6.25 mM sucralose by Fluo-4 dye based FLIPR assay (reference value: 0.027 +/- 0.029); assay type: functional, cell-based
[16] = target: T2, Taste receptor type 2 member 16 (Homo sapiens); experiment: Antagonist activity at full-length human TAS2R16 expressed in HEK293T/Galpha16-gustducin 44 cells assessed as effect on calcium flux by measuring deltaF/F0 ratio at 25 uM in presence of 0.0391 mM phenyl-beta-glucopyranoside by Fluo-4 dye based FLIPR assay; assay type: functional, cell-based
[17] = target: T4, Taste receptor type 2 member 1 (Homo sapiens) (UniProt Q9NYW7); experiment: Antagonist activity at full-length human TAS2R1 expressed in HEK293T/Galpha16-gustducin 44 cells assessed as inhibition of sucralose-induced calcium flux at 25 uM by Fluo-4 dye based FLIPR assay; assay type: functional, cell-based
T4 sequence (whole entry): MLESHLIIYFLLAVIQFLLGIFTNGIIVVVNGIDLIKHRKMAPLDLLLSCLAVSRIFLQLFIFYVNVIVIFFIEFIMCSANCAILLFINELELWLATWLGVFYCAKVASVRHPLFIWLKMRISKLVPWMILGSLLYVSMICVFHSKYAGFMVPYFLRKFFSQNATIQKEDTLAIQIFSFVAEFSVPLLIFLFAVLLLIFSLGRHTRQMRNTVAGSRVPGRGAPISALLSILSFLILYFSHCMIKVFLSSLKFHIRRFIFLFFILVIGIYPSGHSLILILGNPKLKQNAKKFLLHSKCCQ

[18] = target: T2, Taste receptor type 2 member 16 (Homo sapiens); experiment: Antagonist activity at full-length human TAS2R16 expressed in HEK293T/Galpha16-gustducin 44 cells assessed as effect on calcium flux by measuring deltaF/F0 ratio at 25 uM in presence of 0.0781 mM phenyl-beta-glucopyranoside by Fluo-4 dye based FLIPR assay; assay type: functional, cell-based
[19] = target: T3, Taste receptor type 2 member 31 (Homo sapiens); experiment: Antagonist activity at full-length human TAS2R44 expressed in HEK293T/Galpha16-gustducin 44 cells assessed as effect on calcium flux by measuring deltaF/F0 ratio at 25 uM in presence of 3.125 mM sucralose by Fluo-4 dye based FLIPR assay (reference value: 0.030 +/- 0.042); assay type: functional, cell-based
[20] = target: T2, Taste receptor type 2 member 16 (Homo sapiens); experiment: Antagonist activity at full-length human TAS2R16 expressed in HEK293T/Galpha16-gustducin 44 cells assessed as effect on calcium flux by measuring deltaF/F0 ratio at 25 uM in presence of 10 mM phenyl-beta-glucopyranoside by Fluo-4 dye based FLIPR assay; assay type: functional, cell-based
[21] = target: T3, Taste receptor type 2 member 31 (Homo sapiens); experiment: Antagonist activity at full-length human TAS2R44 expressed in HEK293T/Galpha16-gustducin 44 cells assessed as effect on calcium flux by measuring deltaF/F0 ratio at 25 uM in presence of 0.3906 mM sucralose by Fluo-4 dye based FLIPR assay (reference value: 0.046 +/- 0.048); assay type: functional, cell-based
[22] = target: T2, Taste receptor type 2 member 16 (Homo sapiens); experiment: Antagonist activity at full-length human TAS2R16 expressed in HEK293T/Galpha16-gustducin 44 cells assessed as effect on calcium flux by measuring deltaF/F0 ratio at 25 uM in presence of 0.625 mM phenyl-beta-glucopyranoside by Fluo-4 dye based FLIPR assay; assay type: functional, cell-based
[23] = target: T2, Taste receptor type 2 member 16 (Homo sapiens); experiment: Antagonist activity at full-length human TAS2R16 expressed in HEK293T/Galpha16-gustducin 44 cells assessed as effect on calcium flux by measuring deltaF/F0 ratio at 25 uM in presence of 5 mM phenyl-beta-glucopyranoside by Fluo-4 dye based FLIPR assay; assay type: functional, cell-based
[24] = target: T3, Taste receptor type 2 member 31 (Homo sapiens); experiment: Antagonist activity at full-length human TAS2R44 expressed in HEK293T/Galpha16-gustducin 44 cells assessed as effect on calcium flux by measuring deltaF/F0 ratio at 25 uM in presence of 50 mM sucralose by Fluo-4 dye based FLIPR assay (reference value: 0.192 +/- 0.011); assay type: functional, cell-based
[25] = target: T2, Taste receptor type 2 member 16 (Homo sapiens); experiment: Antagonist activity at full-length human TAS2R16 expressed in HEK293T/Galpha16-gustducin 44 cells assessed as effect on calcium flux by measuring deltaF/F0 ratio at 25 uM in presence of 0.3125 mM phenyl-beta-glucopyranoside by Fluo-4 dye based FLIPR assay; assay type: functional, cell-based
[26] = target: T3, Taste receptor type 2 member 31 (Homo sapiens); experiment: Antagonist activity at full-length human TAS2R44 expressed in HEK293T/Galpha16-gustducin 44 cells assessed as effect on calcium flux by measuring deltaF/F0 ratio at 25 uM in presence of 12.5 mM sucralose by Fluo-4 dye based FLIPR assay (reference value: 0.051 +/- 0.004); assay type: functional, cell-based
[27] = target: T2, Taste receptor type 2 member 16 (Homo sapiens); experiment: Antagonist activity at full-length human TAS2R16 expressed in HEK293T/Galpha16-gustducin 44 cells assessed as effect on calcium flux by measuring deltaF/F0 ratio at 25 uM in presence of 2.5 mM phenyl-beta-glucopyranoside by Fluo-4 dye based FLIPR assay; assay type: functional, cell-based
[28] = target: T3, Taste receptor type 2 member 31 (Homo sapiens); experiment: Antagonist activity at full-length human TAS2R44 expressed in HEK293T/Galpha16-gustducin 44 cells assessed as effect on calcium flux by measuring deltaF/F0 ratio at 25 uM in presence of 0.7813 mM sucralose by Fluo-4 dye based FLIPR assay (reference value: 0.038 +/- 0.042); assay type: functional, cell-based
[29] = target: T3, Taste receptor type 2 member 31 (Homo sapiens); experiment: Antagonist activity at full-length human TAS2R44 expressed in HEK293T/Galpha16-gustducin 44 cells assessed as effect on calcium flux by measuring deltaF/F0 ratio at 25 uM in presence of 1.5625 mM sucralose by Fluo-4 dye based FLIPR assay (reference value: 0.042 +/- 0.039); assay type: functional, cell-based
[30] = system: HEK-293T; experiment: Effect on calcium flux in HEK293T/Galpha16-gustducin 44 cells assessed as effect on calcium flux by measuring deltaF/F0 ratio at 25 uM in presence of 100 mM sucralose by Fluo-4 dye based FLIPR assay (reference value: -0.179 +/- 0.023); assay type: functional, Homo sapiens
[31] = target: T2, Taste receptor type 2 member 16 (Homo sapiens); experiment: Antagonist activity at full-length human TAS2R16 expressed in HEK293T/Galpha16-gustducin 44 cells assessed as effect on calcium flux by measuring deltaF/F0 ratio at 25 uM in presence of 0.1563 mM phenyl-beta-glucopyranoside by Fluo-4 dye based FLIPR assay; assay type: functional, cell-based
[32] = target: T2, Taste receptor type 2 member 16 (Homo sapiens); experiment: Antagonist activity at full-length human TAS2R16 expressed in HEK293T/Galpha16-gustducin 44 cells assessed as inhibition of P-beta-G-induced calcium flux by measuring P-beta-G EC50 at 25 uM by Fluo-4 dye based FLIPR assay; assay type: functional, cell-based

## OC[C@H]1O[C@@H](Oc2ccccc2)[C@H](O)[C@@H](O)[C@@H]1O
[1]
  EC50: 210 µM
[2]
  Ratio: 0.926
[3]
  Ratio: 0.012
[4]
  Ratio: 2.28
[5]
  Ratio: 2.88
[6]
  Ratio: 0.213
[7]
  Ratio: 2.36
[8]
  Ratio: 2.69
[9]
  Ratio: 2.58
[10]
  Ratio: 1.81

## CC1=CCC(C/C=C/C(=O)O)C1(C)C (centres undefined)
[11]
  Ratio: -0.035
[12]
  Ratio: 0.107
[13]
  Ratio: 2.37
[14]
  inhibition: Active
[15]
  Ratio: 0
[16]
  Ratio: -0.013
[17]
  inhibition: Active
[18]
  Ratio: 0.108
[19]
  Ratio: 0.005
[20]
  Ratio: 2.83
[21]
  Ratio: 0.011
[22]
  Ratio: 2.14
[23]
  Ratio: 2.65
[24]
  Ratio: -0.025
[25]
  Ratio: 1.55
[26]
  Ratio: -0.015
[27]
  Ratio: 2.48
[28]
  Ratio: 0.01
[29]
  Ratio: 0.016
[30]
  Ratio: -0.175
[31]
  Ratio: 0.702

## CC1CCC(CCCC(N)=O)C1(C)C (centres undefined)
[17]
  inhibition: inactive
[32]
  inhibition: inactive
[30]; Homo sapiens
  Activity: inactive
